Source: patent US10519152B2, “Compounds and their use in treating cancer” (AstraZeneca AB, priority 2017, dated 2019)

Molecular target: T1, Estrogen Receptor (ERα) in MCF-7 human ductal carcinoma breast cell line (Homo sapiens, UniProt P03372)
T1 construct: endogenous in cells; host or cells: MCF-7
T1 sequence (P03372 1-595): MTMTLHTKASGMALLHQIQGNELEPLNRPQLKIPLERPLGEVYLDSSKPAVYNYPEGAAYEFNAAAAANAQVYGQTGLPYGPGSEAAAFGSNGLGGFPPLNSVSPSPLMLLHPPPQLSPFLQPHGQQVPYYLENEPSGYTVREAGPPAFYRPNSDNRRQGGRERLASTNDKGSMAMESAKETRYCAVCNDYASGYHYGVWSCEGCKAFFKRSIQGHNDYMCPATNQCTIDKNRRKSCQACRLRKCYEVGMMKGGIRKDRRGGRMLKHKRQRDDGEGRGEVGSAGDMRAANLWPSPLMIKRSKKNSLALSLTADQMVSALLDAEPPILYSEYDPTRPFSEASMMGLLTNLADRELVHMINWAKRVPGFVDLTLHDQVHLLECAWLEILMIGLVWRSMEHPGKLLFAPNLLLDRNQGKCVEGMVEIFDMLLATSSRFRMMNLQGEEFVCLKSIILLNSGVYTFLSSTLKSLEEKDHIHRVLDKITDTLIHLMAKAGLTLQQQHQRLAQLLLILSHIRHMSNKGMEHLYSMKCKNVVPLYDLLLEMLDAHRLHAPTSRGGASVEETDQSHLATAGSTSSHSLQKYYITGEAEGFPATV
Assay: MCF-7 ER degradation assay (cell based immuno-fluorescence)
Conditions: MCF-7 cells; for ER degradation ≥ 90% at 0.3 μM: ER degradation by fulvestrant at 0.3 μM is defined as 100%; for DC50: 18-22 hours incubation, 50% reduction of ERα expression, single experiment or average of two or more, read-out: MCF-7 ER degradation IC50
Summary of the method: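 MCF-7 human ductal carcinoma breast cells were seeded at 3.75×10^4 cells per mL (40 μL per well) in 384 well plates with phenol red free DMEM containing 2 mM L-Glutamine and 5% (v/v) Charcoal/Dextran treated foetal calf serum. After overnight culture, compounds were acoustically dispensed, incubated 18-22 hours, then cells were formaldehyde-fixed and immunostained for ERα.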

SMILES	ER degradation ≥ 90% at 0.3 μM	DC50
Cc1ncsc1-c1ccc(CNC(=O)[C@@H]2C[C@@H](O)CN2C(=O)[C@@H](NC(=O)COCCCOCCOc2cc(F)c([C@@H]3c4[nH]c5ccccc5c4C[C@@H](C)N3CC(F)(F)F)c(F)c2)C(C)(C)C)cc1 [Example 94, (2S,4R)-1-((S)-2-(2-(3-(2-(3,5-Difluoro-4-((1R,3R)-3-methyl-2-(2,2,2-trifluoroethyl)-2,3,4,9-tetrahydro-1H-pyrido[3,4-b]indol-1-yl)phenoxy)ethoxy)propoxy)acetamido)-3,3-dimethylbutanoyl)-4-hydroxy-N-(4-(4-methylthiazol-5-yl)benzyl)pyrrolidine-2-carboxamide]	•	0.6 nM
Cc1ncsc1-c1ccc(CNC(=O)[C@@H]2C[C@@H](O)CN2C(=O)[C@@H](NC(=O)COCCO[C@@H](C)[C@H](C)OCCOc2cc(F)c([C@@H]3c4[nH]c5ccccc5c4C[C@@H](C)N3CC(C)(C)F)c(F)c2)C(C)(C)C)cc1 [Example 82, (2S,4R)-1-((2S,10S,11S)-2-(tert-butyl)-14-(3,5-difluoro-4-((1R,3R)-2-(2-fluoro-2-methylpropyl)-3-methyl-2,3,4,9-tetrahydro-1H-pyrido[3,4-b]indol-1-yl)phenoxy)-10,11-dimethyl-4-oxo-6,9,12-trioxa-3-azatetradecanoyl)-4-hydroxy-N-(4-(4-methylthiazol-5-yl)benzyl)pyrrolidine-2-carboxamide]	••	0.2 nM
Cc1ncsc1-c1ccc(CNC(=O)[C@@H]2C[C@@H](O)CN2C(=O)[C@@H](NC(=O)COCCCCOCCCOc2cc(F)c([C@@H]3c4[nH]c5ccccc5c4C[C@@H](C)N3CC(C)(C)F)c(F)c2)C(C)(C)C)cc1 [Example 93]	•	0.9 nM
Cc1ncsc1-c1ccc(CNC(=O)[C@@H]2C[C@@H](O)CN2C(=O)[C@@H](NC(=O)COCc2ccc(OCCOc3cc(F)c([C@@H]4c5[nH]c6ccccc6c5C[C@@H](C)N4CC(C)(C)F)c(F)c3)cc2)C(C)(C)C)cc1 [Example 4, (2S,4R)-1-((S)-2-(2-((4-(2-(3,5-Difluoro-4-((1R,3R)-2-(2-fluoro-2-methylpropyl)-3-methyl-2,3,4,9-tetrahydro-1H-pyrido[3,4-b]indol-1-yl)phenoxy)ethoxy)benzyl)oxy)acetamido)-3,3-dimethylbutanoyl)-4-hydroxy-N-(4-(4-methylthiazol-5-yl)benzyl)pyrrolidine-2-carboxamide]	•	2.1 nM
Cc1ncsc1-c1ccc(CNC(=O)[C@@H]2C[C@@H](O)CN2C(=O)[C@@H](NC(=O)COCCOCCOCCOCC(=O)Nc2cc(F)c([C@@H]3c4[nH]c5ccccc5c4C[C@@H](C)N3CC(C)(C)F)c(F)c2)C(C)(C)C)cc1 [Example 68, N1-(3,5-difluoro-4-((1R,3R)-2-(2-fluoro-2-methylpropyl)-3-methyl-2,3,4,9-tetrahydro-1H-pyrido[3,4-b]indol-1-yl)phenyl)-N14-((S)-1-((2S,4R)-4-hydroxy-2-((4-(4-methylthiazol-5-yl)benzyl)carbamoyl)pyrrolidin-1-yl)-3,3-dimethyl-1-oxobutan-2-yl)-3,6,9,12-tetraoxatetradecanediamide]	••	6.2 nM
Cc1ncsc1-c1ccc(CNC(=O)[C@@H]2C[C@@H](O)CN2C(=O)[C@@H](NC(=O)COCCOCCOCC(=O)Nc2ccc([C@@H]3c4[nH]c5ccccc5c4C[C@@H](C)N3CC(C)(C)F)cc2)C(C)(C)C)cc1 [Example 57, (2S,4R)-1-((S)-2-(tert-butyl)-14-((4-((1R,3R)-2-(2-fluoro-2-methylpropyl)-3-methyl-2,3,4,9-tetrahydro-1H-pyrido[3,4-b]indol-1-yl)phenyl)amino)-4,14-dioxo-6,9,12-trioxa-3-azatetradecanoyl)-4-hydroxy-N-(4-(4-methylthiazol-5-yl)benzyl)pyrrolidine-2-carboxamide, Trifluoroacetic Acid]	•	0.9 nM
